Assay results as given in patent US9365574B2, “Soluble guanylate cyclase activators” (Merck Sharp & Dohme Corp., priority 2010, dated 2016).

These compounds were tested on Spontaneously hypertensive rats (SHR) (assay: Acute Efficacy in Spontaneously Hypertensive Rats (SHR), telemetry blood pressure). Conditions: dose 1.0 mpk.
Format: in vivo, rat
Description: Acute Efficacy in Spontaneously Hypertensive Rats (SHR)
Spontaneously hypertensive rats (SHR, male, Charles River) were implanted with DSI TA11PA-C40 telemetry device (Data Sciences, Inc., St. Paul, Minn.) under isoflurane or ketamine/metomidine anesthesia. The telemetry unit catheter was inserted into the descending aorta via the femoral artery and the telemetry device was implanted subcutaneously in the left flank area. Animals were allowed to recover from surgery for 14 days before the start of any studies. Blood pressure, heart rate, and activity signals from conscious, freely moving rats were recorded continuously for 30 seconds every 10 minutes. On the day prior to administration of compound, a single oral dose of vehicle (10% transcutol/20% Cremophor/70% water) was administered to all animals to establish baseline control data. The blood pressure lowering efficacy of compound (PO) or vehicle was evaluated following a single oral gavage. Data were collected as hourly averages, and changes in blood pressure were calculated by subtracting control baseline data on an hourly basis. Animals were maintained on normal diet with a 12 hour light-dark cycle.
Maximum peak decreases of systolic blood pressure (SBP) in SHR at a particular P.O. dose (mpk milligrams per kilogram) for the following representative compounds are provided.
For `CC1(C(=O)Nc2cccnc2)C(=O)Nc2nc(-c3nn(CCC(F)(F)F)c4ncccc34)nc(N)c21` (stereo not shown) [Example 182, 4-Amino-5-Methyl-6-Oxo-N-(Pyridin-3-yl)-2-[1-(3,3,3-Trifluoropropyl)-1H-Pyrazolo[3,4-B]Pyridin-3-yl]-6,7-Dihydro-5H-Pyrrolo[2,3-D]Pyrimidine-5-Carboxamide], the “Maximum SBP reduction” value was 46 ± 11 mmHg.

Same assay, conditions: single oral dose 0.3 mpk P.O.
For `Nc1nc(-c2nn(CCC(F)(F)C(F)(F)F)c3ncccc23)nc2c1C(C(=O)NC1CC1)(C1CC1)C(=O)N2` (stereo not shown) [Example 242, 4-amino-N,5-dicyclopropyl-6-oxo-2-[1-(3,3,4,4,4-pentafluorobutyl)-1H-pyrazolo(3,4-b]pyridin-3-yl]-6,7-dihydro-5H-pyrrolo[2,3-d]pyrimidine-5-carboxamide], the “Maximum peak decrease of systolic blood pressure (SBP) in SHR, Category” value (shortened to “Maximum peak decrease”) was “B (Category B=SBP in SHRs 25-40 mmHg)”. In the case of `CNc1nc(-c2nn(CCC(F)(F)C(F)(F)F)c3cc(Cl)ccc23)nc2c1C(C)(c1ccccc1)C(=O)N2` (stereo not shown) [Example 188, 2-[6-Chloro-1-(3,3,4,4,4-Pentafluorobutyl)-1H-Indazol-3-yl]-5-Methyl-4-(Methylamino)-5-Phenyl-5,7-Dihydro-6H-Pyrrolo[2,3-D]Pyrimidin-6-One], the “Maximum peak decrease” value is reported as “B (Category B=SBP in SHRs 25-40 mmHg)”. With `CNC(=O)C1(C)C(=O)Nc2nc(-c3nn(CCC(F)(F)C(F)(F)F)c4ncccc34)nc(NC)c21` (stereo not shown) [Example 259, N,5-dimethyl-4-(methylamino)-6-oxo-2-[1-(3,3,4,4,4-pentafluorobutyl)-1H-pyrazolo[3,4-b]pyridin-3-yl]-6,7-dihydro-5H-pyrrolo[2,3-d]pyrimidine-5-carboxamide] the “Maximum peak decrease” value was “A (Category A=SBP in SHRs<25 mmHg)”. In the case of `CNc1nc(-c2nn(CCC(F)(F)C(F)(F)F)c3ncccc23)nc2c1C(C)(C(=O)NC1CC1)C(=O)N2` (stereo not shown) [Example 187, N-Cyclopropyl-5-Methyl-4-(Methylamino)-6-Oxo-2-[1-(3,3,4,4,4-Pentafluorobutyl)-1H-Pyrazolo[3,4-B]Pyridin-3-yl]-6,7-Dihydro-5H-Pyrrolo[2,3-D]Pyrimidine-5-Carboxamide], the “Maximum peak decrease” value is reported as “B (Category B=SBP in SHRs 25-40 mmHg)”. With `CC1(C(=O)NC2CC2)C(=O)Nc2nc(-c3nn(CCCC(F)(F)F)c4ncccc34)nc(N)c21` (stereo not shown) [Example 222, 4-amino-N-cyclopropyl-5-methyl-6-oxo-2-[1-(4,4,4-trifluorobutyl)-1H-pyrazolo[3,4-b]pyridin-3-yl]-6,7-dihydro-5H-pyrrolo[2,3-d]pyrimidine-5-carboxamide] the “Maximum peak decrease” value was “C (Category C=SBP in SHRs>40 mmHg)”. For `CC1(C(=O)Nc2cccnc2)C(=O)Nc2nc(-c3nn(CCC(F)(F)C(F)(F)F)c4ncccc34)nc(N)c21` (stereo not shown) [Example 234, 4-amino-5-methyl-6-oxo-2-[1-(3,3,4,4,4-pentafluorobutyl)-1H-pyrazolo[3,4-b]pyridin-3-yl]-N-pyridin-3-yl-6,7-dihydro-5H-pyrrolo[2,3-d]pyrimidine-5-carboxamide], the “Maximum peak decrease” value was “C (Category C=SBP in SHRs>40 mmHg)”. `CC1(c2ccccc2)C(=O)Nc2nc(-c3nc(CCC(F)(F)C(F)(F)F)c4ccccn34)nc(N)c21` (single isomer, unassigned) [Example 190, 4-Amino-5-Methyl-2-[1-(3,3,4,4,4-Pentafluorobutyl)Imidazo[1,5-A]Pyridin-3-yl]-5-Phenyl-5,7-Dihydro-6H-Pyrrolo[2,3-D]Pyrimidin-6-One] was tested, and the “Maximum peak decrease” value was “B (Category B=SBP in SHRs 25-40 mmHg)”. With `CC(C)C1(C(N)=O)C(=O)Nc2nc(-c3nn(CCC(F)(F)C(F)(F)F)c4ncccc34)nc(N)c21` (stereo not shown) [Example 244, 4-amino-5-(1-methylethyl)-6-oxo-2-(1-(3,3,4,4,4-pentafluorobutyl)-1H-pyrazolo[3,4-b]pyridin-3-yl]-6,7-dihydro-5H-pyrrolo[2,3-d]pyrimidine-5-carboxamide] the “Maximum peak decrease” value was “C (Category C=SBP in SHRs>40 mmHg)”. With `CNc1nc(-c2nn(CCC(F)(F)C(F)(F)F)c3ncccc23)nc2c1C(C(=O)NC1CC1)(C1CC1)C(=O)N2` (stereo not shown) [Example 262, N,5-dicyclopropyl-4-(methylamino)-6-oxo-2-[1-(3,3,4,4,4-pentafluorobutyl)-1H-pyrazolo[3,4-b]pyridin-3-yl]-6,7-dihydro-5H-pyrrolo[2,3-d]pyrimidine-5-carboxamide] the “Maximum peak decrease” value was “A (Category A=SBP in SHRs<25 mmHg)”. For `CC1(c2nc(C(F)(F)F)no2)C(=O)Nc2nc(-c3nc(CCCC(F)(F)F)n4cc(F)ccc34)nc(N)c21` (stereo not shown) [Example 248, 4-amino-2-[6-fluoro-3-(4,4,4-trifluorobutyl)imidazo[1,5-a]pyridin-1-yl]-5-methyl-5-[3-(trifluoromethyl)-1,2,4-oxadiazol-5-yl]-5,7-dihydro-6H-pyrrolo[2,3-d]pyrimidin-6-one], the “Maximum peak decrease” value was “B (Category B=SBP in SHRs 25-40 mmHg)”. `CC1(C(N)=O)C(=O)Nc2nc(-c3nn(CCC(F)(F)C(F)(F)F)c4ncccc34)nc(N)c21` (stereo not shown) [Example 161, 4-Amino-5-Methyl-6-Oxo-2-[1-(3,3,4,4,4-Pentafluorobutyl)-1H-Pyrazolo[3,4-B]Pyridin-3-yl]-6,7-Dihydro-5H-Pyrrolo[2,3-D]Pyrimidine-5-Carboxamide] was tested, and the “Maximum peak decrease” value was “B (Category B=SBP in SHRs 25-40 mmHg)”. With `CC1(c2nncs2)C(=O)Nc2nc(-c3nn(CCCC(F)(F)F)c4ncccc34)nc(N)c21` (stereo not shown) [Example 236, 4-amino-5-methyl-5-(1,3,4-thiadiazol-2-yl)-2-[1-(4,4,4-trifluorobutyl)-1H-pyrazolo[3,4-b]pyridin-3-yl]-5,7-dihydro-6H-pyrrolo[2,3-d]pyrimidin-6-one] the “Maximum peak decrease” value was “B (Category B=SBP in SHRs 25-40 mmHg)”. For `CCc1nnc(C2(C)C(=O)Nc3nc(-c4nn(CCC(F)(F)C(F)(F)F)c5ncccc45)nc(N)c32)o1` (stereo not shown) [Example 211, 4-amino-5-(5-ethyl-1,3,4-oxadiazol-2-yl)-5-methyl-2-[1-(3,3,4,4,4-pentafluorobutyl)-1H-pyrazolo[3,4-b]pyridin-3-yl]-5,7-dihydro-6H-pyrrolo[2,3-d]pyrimidin-6-one], the “Maximum peak decrease” value was “C (Category C=SBP in SHRs>40 mmHg)”. For `CCOC(=O)NC1(C)C(=O)Nc2nc(-c3nn(CCC(F)(F)C(F)(F)F)c4cc(Cl)ccc34)nc(N)c21` (stereo not shown) [Example 166, Ethyl (4-Amino-2-(6-Chloro-1-(3,3,4,4,4-Pentafluorobutyl)-1H-Indazol-3-yl)-5-Methyl-6-Oxo-6,7-Dihydro-5H-Pyrrolo[2,3-D]Pyrimidin-5-yl)Carbamate], the “Maximum peak decrease” value was “A (Category A=SBP in SHRs<25 mmHg)”. With `CC(C)n1nc(C2(C)C(=O)Nc3nc(-c4nn(CCC(F)(F)C(F)(F)F)c5cc(Cl)ccc45)nc(N)c32)oc1=S` (stereo not shown) [Example 172, 4-Amino-2-[6-Chloro-1-(3,3,4,4,4-Pentafluorobutyl)-1H-Indazol-3-yl]-5-Methyl-5-[4-(Propan-2-yl)-5-Thioxo-4,5-Dihydro-1,3,4-Oxadiazol-2-yl]-5,7-Dihydro-6H-Pyrrolo[2,3-D]Pyrimidin-6-One] the “Maximum peak decrease” value was “A (Category A=SBP in SHRs<25 mmHg)”. For `Cc1nnc(C2(C)C(=O)Nc3nc(-c4nn(CCC(F)(F)C(F)(F)F)c5ncc(Cl)cc45)nc(N)c32)o1` (stereo not shown) [Example 269, 4-amino-2-[5-chloro-1-(3,3,4,4,4-pentafluorobutyl)-1H-pyrazolo[3,4-b]pyridin-3-yl]-5-methyl-5-(5-methyl-1,3,4-oxadiazol-2-yl)-5,7-dihydro-6H-pyrrolo[2,3-d]pyrimidin-6-one], the “Maximum peak decrease” value was “C (Category C=SBP in SHRs>40 mmHg)”. `CC(C)NC(=O)C1(C)C(=O)Nc2nc(-c3nn(CCC(F)(F)C(F)(F)F)c4ncccc34)nc(N)c21` (stereo not shown) [Example 197, 4-amino-5-methyl-N-(1-methylethyl)-6-oxo-2-[1-(3,3,4,4,4-pentafluorobutyl)-1H-pyrazolo[3,4-b]pyridin-3-yl]-6,7-dihydro-5H-pyrrolo[2,3-d]pyrimidine-5-carboxamide] was tested, and the “Maximum peak decrease” value was “B (Category B=SBP in SHRs 25-40 mmHg)”.

Same assay, conditions: single oral dose 1 mpk P.O.
`CN(C)C(=O)C1(C)C(=O)Nc2nc(-n3nc(CCC(F)(F)C(F)(F)F)c4cc(Cl)ccc43)nc(N)c21` (stereo not shown) [Example 265, 4-amino-2-[5-chloro-3-(3,3,4,4,4-pentafluorobutyl)-1H-indazol-1-yl]-N,N,5-trimethyl-6-oxo-6,7-dihydro-5H-pyrrolo[2,3-d]pyrimidine-5-carboxamide] was tested, and the “Maximum peak decrease” value was “C (Category C=SBP in SHRs>40 mmHg)”. With `CC1(C(=O)Nc2cccnc2)C(=O)Nc2nc(-c3nn(CCC(F)(F)F)c4ncccc34)nc(N)c21` (stereo not shown) [Example 182, 4-Amino-5-Methyl-6-Oxo-N-(Pyridin-3-yl)-2-[1-(3,3,3-Trifluoropropyl)-1H-Pyrazolo[3,4-B]Pyridin-3-yl]-6,7-Dihydro-5H-Pyrrolo[2,3-D]Pyrimidine-5-Carboxamide] the “Maximum peak decrease” value was “B (Category B=SBP in SHRs 25-40 mmHg)”. For `CC1(C(=O)Nc2ccccn2)C(=O)Nc2nc(-c3nn(CCOC(F)(F)F)c4ncccc34)nc(N)c21` (stereo not shown) [Example 209, 4-amino-5-methyl-6-oxo-N-pyridin-2-yl-2-{1-[2-(trifluoromethoxy)ethyl]-1H-pyrazolo[3,4-b]pyridin-3-yl}-6,7-dihydro-5H-pyrrolo[2,3-d]pyrimidine-5-carboxamide], the “Maximum peak decrease” value was “B (Category B=SBP in SHRs 25-40 mmHg)”. For `CC1(C(N)=O)C(=O)Nc2nc(-c3nc(CCC(F)(F)C(F)(F)F)n4ncccc34)nc(N)c21` (stereo not shown) [Example 254, 4-amino-5-methyl-6-oxo-2-[7-(3,3,4,4,4-pentafluorobutyl)imidazo[1,5-b]pyridazin-5-yl]-6,7-dihydro-5H-pyrrolo[2,3-d]pyrimidine-5-carboxamide], the “Maximum peak decrease” value was “B (Category B=SBP in SHRs 25-40 mmHg)”.
